US9364545B2, “Thermosensitive injectable hydrogel for drug delivery” (Taipei Medical University, priority 2014, dated 2016)

Tests used:
[1] = system: C26 colon carcinoma cells; experiment: Cell viability, MTT assay; assay type: cell-based; settings: 24 h incubation
Procedure: (§1) C26 colon carcinoma cells and HT29 human colon cancer cells were cultured with RPMI-1640 with 10% fetal bovine serum and 10% penicillinstreptomycin. MCF-7 human breast cancer cells MEM were cultured with Eagle's MEM with 10% fetal bovine serum and 10% penicillinstreptomycin. Cells were seeded at a density of 5×10^4 cells per well in 24-well plates. After 24 hours of incubation at 37° C. with 5% CO2, the medium was replaced with new medium containing Dox formulation. After 24 hours incubation, cell survival was then measured using tetrazolium salt MTT assay. One hundred microliters of MTT (6 mg/mL) was added to each well for 4 hours. The medium was removed after […] incubation and then 200 μl DMSO was added to dissolve any purple formazan crystal formed. Remove the solvent was removed and dried in an oven at 50° C. for 2 hours. Cell viability was measured by ELISA reader and absorbance set at 520 nm.

[2] = system: HT29 human colon cancer cells; experiment: Cell viability, MTT assay; assay type: cell-based; settings: 24 h incubation
Procedure: as §1

[3] = system: MCF-7 human breast cancer cells; experiment: Cell viability, MTT assay; assay type: cell-based; settings: MCF7 cells, 24 h incubation
Procedure: as §1

[4] = Body weight and death as indication of systemic toxicity; assay type: in vivo, Balb/c male mice; settings: after intratumoral injection, during the experiment
Procedure: (§2) The suspension of […] (1.0×10^6 cells/100 μl) was injected subcutaneously in the right flank of Balb/c male mice using 26 G needles. After 7 days tumor size reached 100-300 mm^3. The […] were randomly divided into three groups (n=3) and received following treatments. Group 1 mice were treated with an intratumoral injection of sterile PBS as control group; Group 2, mice received an intratumoral injection of Dox-HA hydrogel; Group 3, mice received an intratumoral injection of free Dox solution (4 mg/kg in 0.1 mL). The mice were weighed and tumor size was measured using a capliper for 10 days post intratumoral injection. The tumor volume (V) was calculated with the following formula V=[length×(width)^2]/2
We also monitored change in body weight during the experiment as an indication of systemic toxicity.

C26 tumor = experiment: Tumor inhibition study, intratumoral injection; assay type: in vivo, Balb/c male mice
Procedure: as §2
On day 10, the mice were sacrificed and the tumor masses harvested, weighted, and photographed. Tumor inhibition rate was calculated using the equation. Tumor inhibition rate (%)=(Wc−Wt)/Wc where Wc is the weight of the tumor in the control group and Wt is the weight of the tumor in the test formulation group (L. Chen, X. Sha, X. Jiang, Y. Chen, Q. Ren, X. Fang, Pluronic P105/F127 mixed micelles for the delivery of docetaxel against Taxol-resistant non-small cell lung cancer: optimization and in vitro, in vivo evaluation, International journal of nanomedicine, 8 (2013) 73-84).
The in vivo antitumor efficacy of DHMF-15 hydrogel formulation was evaluated in the C26 tumor-bearing mice model. Mice were randomized into […] when the tumor size reached 100 mm^3. Three groups of mice received intratumoral injection of PBS, DHMF-15 hydrogel, free Dox solution, DMF-15 hydrogel, and DF-15 hydrogel respectively. […] PBS treatments had no substantial effect on C26 tumor growth, and the tumor volumes increased rapidly. After administration for 10 days, the average tumor volume in the PBS treated mice had reached over 1000 mm^3. […] Ranked from high to low inhibition efficacy, the formulations are ordered as follows: DHMF-15, free Dox solution, DMF-15, DF-15, PBS.

SMILES: COc1cccc2c1C(=O)c1c(O)c3c(c(O)c1C2=O)C[C@@](O)(C(=O)CO)C[C@@H]3O[C@H]1C[C@H](N)[C@H](O)[C@H](C)O1.Cl [free Dox solution, Doxorubicin Hydrochloride]
- Cytotoxicity (cell viability) [1]: potent cytotoxicity
- Cytotoxicity (cell viability) [2]: potent cytotoxicity
- Cytotoxicity (cell viability) [3]: potent cytotoxicity
- Toxicity-induced death and body weight loss [4]: neither toxicity-induced death nor serious body weight loss
- Tumor size as % of that in the PBS control group (C26 tumor; after 10 days, intratumoral injection): 42.45%
- Tumor weight compared to the control group (C26 tumor; day 10): significantly reduced
- Tumor inhibition rate (C26 tumor; excised tumor weight on day 10, (Wc−Wt)/Wc): 80.65%
